Assays:
Type in all cases: in vivo, human
[1] = test system: patient diagnosed with diabetic retinopathy; assay: Treatment of a patient diagnosed with diabetic retinopathy, one eye treated and the other left untreated
Excerpt: A patient is diagnosed with diabetic retinopathy. A composition comprising the calcium channel blocker nifedipine is directly applied to the vitreous surface of one eye while the other eye is left untreated. […] A patient is diagnosed with diabetic retinopathy. A composition comprising the ACE inhibitor enalapril is directly applied to the vitreous surface of one eye while the other eye is left untreated. […] A patient is diagnosed with diabetic retinopathy. A composition comprising the angiotensin receptor blocker losartan is directly applied to the vitreous surface of one eye while the other eye is left untreated. […] A patient is diagnosed with diabetic retinopathy. A composition comprising the calcium channel blocker nifedipine is applied to the eye by intravitreal or intraocular injection while the other eye is left untreated. […] A patient is diagnosed with diabetic retinopathy. A composition comprising the ACE inhibitor enalapril is applied to the eye by intravitreal or intraocular injection while the other eye is left untreated. […] A patient is diagnosed with diabetic retinopathy. A composition comprising the angiotensin receptor blocker losartan is applied to the eye by intravitreal or intraocular injection while the other eye is left untreated.

[2] = test system: patient successfully treated for diabetic retinopathy; assay: Prevention of recurrence in a patient successfully treated for diabetic retinopathy, one eye treated and the other left untreated; details: untreated eye shows signs of recurrence
Excerpt: A composition comprising the calcium channel blocker nifedipine is directly applied to the vitreous surface of one eye while the other eye is left untreated. […] A composition comprising the ACE inhibitor enalapril is directly applied to the vitreous surface of one eye while the other eye is left untreated. […] A composition comprising the angiotensin receptor blocker losartan is directly applied to the vitreous surface of one eye while the other eye is left untreated. […] A composition comprising the calcium channel blocker nifedipine is applied to the eye by intravitreal or intraocular injection while the other eye is left untreated. […] A composition comprising the ACE inhibitor enalapril is applied to the eye by intravitreal or intraocular injection while the other eye is left untreated. […] A composition comprising the angiotensin receptor blocker losartan is applied to the eye by intravitreal or intraocular injection while the other eye is left untreated.

[3] = test system: patients with diabetic retinopathy; assay: Experimental use: vasodilators applied to patients' eyes, progression monitored at follow-up appointments; details: applied to the eye; based on prior experience and observation during treatment of patients
[4] = test system: patient with diabetic retinopathy; assay: Topical ramiprilat formulation to the eye of a patient with diabetic retinopathy
Procedure: In this example, a patient with diabetic retinopathy is administered a topical formulation comprising ramiprilat to the eye. […] The diabetic retinopathy is therefore treated by the topical formulation.

[5] = composition applied by intravitreal or intraocular injection
[6] = composition directly applied to the vitreous surface of one eye

Molecule	symptoms of diabetic retinopathy, treated eye compared to untreated eye [1, 5]	symptoms of diabetic retinopathy, treated eye compared to untreated eye [1, 6]	development (recurrence) of diabetic retinopathy in the treated eye [2, 5]	development (recurrence) of diabetic retinopathy in the treated eye [2, 6]	effectiveness for the treatment of diabetic retinopathy or its symptoms [3]	further results
CCCCc1nc(Cl)c(CO)n1Cc1ccc(-c2ccccc2-c2nn[nH]n2)cc1 [losartan]	reduced symptoms of diabetic retinopathy	reduced symptoms of diabetic retinopathy	not develop diabetic retinopathy	not develop diabetic retinopathy	–	–
CCOC(=O)[C@H](CCc1ccccc1)N[C@@H](C)C(=O)N1CCC[C@H]1C(=O)O [enalapril]	reduced symptoms of diabetic retinopathy	reduced symptoms of diabetic retinopathy	not develop diabetic retinopathy	not develop diabetic retinopathy	–	–
COC(=O)C1=C(C)NC(C)=C(C(=O)OC(C)C)C1c1cccc2nonc12 (stereo not drawn) [isradipine]	–	–	–	–	effective	–
CCCC(=O)OCOC(=O)C1=C(C)NC(C)=C(C(=O)OC)C1c1cccc(Cl)c1Cl (stereo not drawn) [clevidipine]	–	–	–	–	effective	–
Ramiprilat	–	–	–	–	–	capillary blood supply to the eye [4]: increases the capillary blood supply; capillary networks in the eye [4]: grows capillary networks; diabetic retinopathy outcome [4]: treated; intraocular pressure [4]: reduction in intraocular pressure; optic nerve [4]: repair to the optic nerve

— patent US20250262195A1, “METHOD TO PREVENT AND TREAT DIABETIC RETINOPATHY BY CALCIUM CHANNEL BLOCKERS, ANGIOTENSIN CONVERTING ENZYME INHIBITORS, AND ANGIOTENSIN RECEPTOR BLOCKERS” (priority 2022, published 2025)
